Experimental data: ChEMBL document CHEMBL5244275, “Geminal Diheteroatomic Motifs: Some Applications of Acetals, Ketals, and Their Sulfur and Nitrogen Homologues in Medicinal Chemistry and Drug Design” (J Med Chem, 2021)
Values after ≈ are worked out from the molar mass of the structure shown.

Legend:
[1] = Drug concentration in rat plasma at 10 mg/kg, po measured after 90 mins; assay type: ADME, organism-based
MAP kinase p38 = MAP kinase p38 (Homo sapiens, UniProt O15264+Q15759+Q16539+P53778); test: Inhibition of p38-MAPK (unknown origin); assay type: protein assay
[2] = Oral bioavailability in rat; assay type: ADME, organism-based; details: in vivo
Mus musculus [3] = test: Antiinflammatory activity in LPS-induced Balb/c mouse model assessed as reduction in TNF-alpha release administered orally for 30 mins followed by LPS-stimulation and measured after 90 mins by ELISA analysis; assay type: functional; details: 2 h, route po, time 120 min
[4] = target: Sodium-dependent dopamine transporter (Homo sapiens, UniProt Q01959); test: Inhibition of dopamine transporter (unknown origin)
Sodium-dependent dopamine transporter, sequence (Q01959 whole entry): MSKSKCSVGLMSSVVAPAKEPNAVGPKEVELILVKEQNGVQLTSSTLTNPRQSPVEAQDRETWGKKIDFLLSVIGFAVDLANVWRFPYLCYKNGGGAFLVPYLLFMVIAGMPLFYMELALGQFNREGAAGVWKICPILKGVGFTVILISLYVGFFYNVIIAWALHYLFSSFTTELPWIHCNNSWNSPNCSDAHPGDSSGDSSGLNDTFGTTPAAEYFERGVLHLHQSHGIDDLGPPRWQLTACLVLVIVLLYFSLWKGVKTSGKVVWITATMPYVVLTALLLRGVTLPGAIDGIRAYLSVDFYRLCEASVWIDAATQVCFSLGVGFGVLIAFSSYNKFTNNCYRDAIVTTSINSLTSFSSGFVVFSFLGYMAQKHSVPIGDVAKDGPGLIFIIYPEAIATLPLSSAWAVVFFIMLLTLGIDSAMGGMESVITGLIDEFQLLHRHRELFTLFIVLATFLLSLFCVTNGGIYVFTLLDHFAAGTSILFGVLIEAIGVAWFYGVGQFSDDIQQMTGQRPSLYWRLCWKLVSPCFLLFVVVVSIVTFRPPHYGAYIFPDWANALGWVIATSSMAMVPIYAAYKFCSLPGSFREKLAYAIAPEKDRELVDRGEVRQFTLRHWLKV

[5] = target: Sodium-dependent serotonin transporter (Homo sapiens, UniProt P31645); test: Inhibition of SERT (unknown origin)
Sodium-dependent serotonin transporter, sequence (P31645 whole entry): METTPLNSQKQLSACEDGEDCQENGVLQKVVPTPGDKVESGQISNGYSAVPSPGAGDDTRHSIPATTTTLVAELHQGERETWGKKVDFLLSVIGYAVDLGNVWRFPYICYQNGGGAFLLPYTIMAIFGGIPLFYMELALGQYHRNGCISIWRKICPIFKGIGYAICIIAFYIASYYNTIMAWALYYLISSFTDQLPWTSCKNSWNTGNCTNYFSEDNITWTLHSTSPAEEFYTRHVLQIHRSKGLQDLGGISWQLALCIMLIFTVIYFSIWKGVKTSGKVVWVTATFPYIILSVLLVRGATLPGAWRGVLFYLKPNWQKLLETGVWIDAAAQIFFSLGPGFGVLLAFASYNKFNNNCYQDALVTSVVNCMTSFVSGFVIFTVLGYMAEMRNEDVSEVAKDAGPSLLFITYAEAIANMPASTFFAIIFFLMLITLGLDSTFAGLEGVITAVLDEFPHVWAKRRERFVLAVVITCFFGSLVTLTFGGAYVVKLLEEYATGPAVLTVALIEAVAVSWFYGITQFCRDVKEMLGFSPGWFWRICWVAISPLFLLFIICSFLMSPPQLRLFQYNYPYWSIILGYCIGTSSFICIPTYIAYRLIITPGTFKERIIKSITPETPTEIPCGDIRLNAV

[6] = Unbound fraction in human plasma; assay type: ADME, cell-free
[7] = Bioavailability in rat at 0.5 mg/kg, iv measured after 30 mins by LC-MS/MS analysis; assay type: ADME, organism-based; details: in vivo
[8] = system: Human immunodeficiency virus 1; test: Antiviral activity against HIV1 infected in human MT4 cells assessed as inhibition of viral replication; assay type: functional, organism-based; details: Human immunodeficiency virus 1, MT4
[9] = system: Human immunodeficiency virus 1; test: Selectivity index, ratio of EC50 for antiviral activity against HIV-1 G140S/Q148R mutant to EC50 for antiviral activity against wild-type HIV-1; assay type: functional
[10] = Bioavailability in dog at 1 mg/kg, iv measured after 30 mins by LC-MS/MS analysis; assay type: ADME, organism-based, Canis lupus familiaris; details: in vivo
[11] = Solubility of the compound at pH 7 incubated for 12 hrs by UPLC analysis; assay type: physicochemical; details: buffer, pH 7, 12 h
[12] = Half-life in human; assay type: ADME
PXR (NR1I2) = PXR (NR1I2) (Homo sapiens, UniProt O75469); test: Activation of PXR (unknown origin) in human DPX2 cells assessed as maximal efficacy at 15 uM relative to control; assay type: cell-based
PXR (NR1I2), sequence (O75469 whole entry): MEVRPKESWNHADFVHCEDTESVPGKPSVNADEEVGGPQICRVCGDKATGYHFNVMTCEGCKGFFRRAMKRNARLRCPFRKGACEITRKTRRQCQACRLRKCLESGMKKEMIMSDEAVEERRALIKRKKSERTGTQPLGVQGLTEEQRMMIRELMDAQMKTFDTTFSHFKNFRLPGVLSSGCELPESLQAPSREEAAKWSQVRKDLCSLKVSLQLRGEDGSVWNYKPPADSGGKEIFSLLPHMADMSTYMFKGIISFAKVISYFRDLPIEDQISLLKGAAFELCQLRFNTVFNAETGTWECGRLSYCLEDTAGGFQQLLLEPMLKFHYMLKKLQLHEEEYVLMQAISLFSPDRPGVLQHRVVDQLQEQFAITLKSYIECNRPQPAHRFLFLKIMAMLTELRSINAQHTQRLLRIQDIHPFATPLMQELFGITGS

[13] = Stability of the compound in 0.01 N HCL at pH 2.0 assessed as half-life; assay type: physicochemical
Plasmodium falciparum [14] = test: Antiplasmodial activity against Plasmodium falciparum FcM29 assessed as inhibition of plasmodial growth; assay type: functional, organism-based
Plasmodium falciparum [15] = test: Antiplasmodial activity against Plasmodium falciparum W2 assessed as inhibition of parasite growth; assay type: functional, organism-based
Hepatitis C virus = test: Antiviral activity against Hepatitis C virus genotype 1a harboring NS5A Y93H mutant; assay type: functional, organism-based, Hepacivirus hominis
[16] = Oral bioavailability in human; assay type: ADME, organism-based; details: in vivo
[17] = Oral bioavailability in dog; assay type: ADME, organism-based, Canis lupus familiaris; details: in vivo
[18] = Oral bioavailability in monkey; assay type: ADME, organism-based, Macaca mulatta; details: rhesus monkey, in vivo
[19] = Stability of the compound at pH 8 assessed as compound hydrolysis by measuring half-life; assay type: physicochemical; details: buffer
[20] = target: T1, Neutrophil elastase (Homo sapiens) (UniProt P08246); test: Time-dependent inhibition of human leukocyte elastase assessed as observed binding constant
T1 sequence (whole entry): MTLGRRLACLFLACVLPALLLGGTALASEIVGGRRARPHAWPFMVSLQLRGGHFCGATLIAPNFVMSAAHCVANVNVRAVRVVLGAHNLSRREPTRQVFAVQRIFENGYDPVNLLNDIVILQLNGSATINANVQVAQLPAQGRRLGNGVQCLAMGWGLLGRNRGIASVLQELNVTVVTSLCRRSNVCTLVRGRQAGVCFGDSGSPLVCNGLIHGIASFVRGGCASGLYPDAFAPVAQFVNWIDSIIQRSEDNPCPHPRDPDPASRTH

[21] = Inhibition of Leukotriene B4 production in human blood Polymorphonuclear neutrophil cells; assay type: functional, tissue-based
[22] = Cmax in rat plasma at 20 mg/kg, po; assay type: ADME, organism-based; set-up: dose 20 mg/kg, route po
Substance-P receptor = Substance-P receptor (Homo sapiens, UniProt P25103); test: Displacement of [125I]-labeled SP from human NK-1 receptor expressed in CHO cells at 1 uM relative to control; assay type: cell-based; details: filed as antagonist
Substance-P receptor, sequence (P25103 whole entry): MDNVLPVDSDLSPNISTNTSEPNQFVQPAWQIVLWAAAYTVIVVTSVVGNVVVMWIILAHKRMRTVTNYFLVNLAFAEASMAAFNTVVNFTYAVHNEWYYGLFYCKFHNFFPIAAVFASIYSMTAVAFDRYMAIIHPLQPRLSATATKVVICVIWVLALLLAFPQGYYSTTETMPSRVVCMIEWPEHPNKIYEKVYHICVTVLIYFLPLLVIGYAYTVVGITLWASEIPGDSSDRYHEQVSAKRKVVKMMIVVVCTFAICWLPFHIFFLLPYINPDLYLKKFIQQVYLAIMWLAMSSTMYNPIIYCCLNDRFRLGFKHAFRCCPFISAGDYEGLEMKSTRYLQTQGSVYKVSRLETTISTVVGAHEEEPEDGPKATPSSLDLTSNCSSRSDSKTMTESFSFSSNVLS

Mus musculus [23] = organism: Mus musculus; test: Analgesic activity in mouse assessed as protection against phenylbenzoquinone-induced writhing; assay type: functional
[24] = Half-life in po dosed rat; assay type: ADME, organism-based; details: in vivo
Cavia porcellus = test: Antiinflammatory activity in po dosed substance P-induced guinea pig model of dermal inflammation; assay type: functional; details: read-out: ID50 (the source's name)
[25] = Dissociation constant, pKa of the compound; assay type: physicochemical
[26] = Inhibition of Calcium channel (unknown origin); set-up: species or system Homo sapiens
[27] = Stability of the compound assessed as acid hydrolysis by measuring half-life; assay type: physicochemical
[28] = target: Sterol O-acyltransferase 1 (Rattus norvegicus, UniProt O70536); test: Inhibition of ACAT in rat
Sterol O-acyltransferase 1, sequence (O70536 whole entry): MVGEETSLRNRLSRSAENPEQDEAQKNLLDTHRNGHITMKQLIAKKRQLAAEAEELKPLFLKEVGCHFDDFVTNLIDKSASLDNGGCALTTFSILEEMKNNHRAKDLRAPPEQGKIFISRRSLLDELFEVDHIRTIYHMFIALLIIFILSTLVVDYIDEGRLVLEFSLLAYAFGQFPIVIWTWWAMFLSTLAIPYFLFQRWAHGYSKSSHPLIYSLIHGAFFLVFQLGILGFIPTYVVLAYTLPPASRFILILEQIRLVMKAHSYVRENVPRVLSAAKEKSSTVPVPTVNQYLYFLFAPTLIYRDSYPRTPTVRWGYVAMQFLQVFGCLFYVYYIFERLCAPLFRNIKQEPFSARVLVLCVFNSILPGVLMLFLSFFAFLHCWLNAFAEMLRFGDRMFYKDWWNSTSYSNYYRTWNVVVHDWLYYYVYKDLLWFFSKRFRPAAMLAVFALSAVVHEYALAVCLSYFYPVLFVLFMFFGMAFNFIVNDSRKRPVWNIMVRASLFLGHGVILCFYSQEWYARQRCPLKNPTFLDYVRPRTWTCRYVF

[29] = Half-life in iv dosed rat plasma; assay type: ADME, organism-based
[30] = Stability of the compound at pH 2 assessed as half-life; assay type: physicochemical; details: buffer
[31] = Oral bioavailability in mouse; assay type: ADME, organism-based; details: in vivo
[32] = target: Hepatitis C virus serine protease, NS3/NS4A (Hepatitis C virus, UniProt A3EZI9+D2K2A8); test: Inhibition of Hepatitis C virus NS4A-NS3 protease by continuous assay; assay type: protein-complex assay, Hepacivirus hominis
Hepatitis C virus serine protease, NS3/NS4A, sequence (D2K2A8 whole entry): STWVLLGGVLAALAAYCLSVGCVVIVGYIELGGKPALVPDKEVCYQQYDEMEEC
Hepatitis C virus serine protease, NS3/NS4A, sequence (A3EZI9 whole entry): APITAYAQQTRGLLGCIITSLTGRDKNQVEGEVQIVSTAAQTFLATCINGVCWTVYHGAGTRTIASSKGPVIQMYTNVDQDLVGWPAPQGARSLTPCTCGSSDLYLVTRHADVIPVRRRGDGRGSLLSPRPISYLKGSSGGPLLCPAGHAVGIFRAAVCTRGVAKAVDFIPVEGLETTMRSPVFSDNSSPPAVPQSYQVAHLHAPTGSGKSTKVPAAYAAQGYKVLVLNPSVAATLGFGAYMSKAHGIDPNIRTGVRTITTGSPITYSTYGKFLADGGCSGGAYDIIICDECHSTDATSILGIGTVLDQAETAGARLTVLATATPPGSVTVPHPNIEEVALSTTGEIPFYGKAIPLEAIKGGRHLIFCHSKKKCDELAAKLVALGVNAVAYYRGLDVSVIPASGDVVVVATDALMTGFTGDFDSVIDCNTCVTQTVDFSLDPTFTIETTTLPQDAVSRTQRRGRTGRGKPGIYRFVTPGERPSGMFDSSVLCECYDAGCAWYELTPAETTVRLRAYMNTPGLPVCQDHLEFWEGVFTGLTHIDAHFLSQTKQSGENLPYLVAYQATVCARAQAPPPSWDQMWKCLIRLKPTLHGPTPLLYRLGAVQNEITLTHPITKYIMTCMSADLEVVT

[33] = Antiplatelet activity in human platelet rich plasma assessed as platelet aggregation; assay type: functional, cell-free
[34] = Stability of the compound at pH 7.4 aqueous phosphate buffer assessed as half-life; assay type: physicochemical
[35] = Stability of the compound at pH 1 assessed as half-life; assay type: physicochemical; details: buffer
[36] = Antiplasmodial activity against Plasmodium berghei NK 173 infected in ICR (CD-1) mouse assessed as inhibition of parasite growth administered intraperitoneally for four days; details: NK 173, 96 h

c1ccc(-c2nc([C@H]3OC[C@@H](CCCCN4CCSCC4)CO3)[nH]c2-c2ccccc2)cc1
concentration at 1.5 h [1]: 2200 nM

C[C@]1(NC(=O)N2CCOCC2)CO[C@H](c2nc(-c3ccncc3)c(-c3ccc(F)cc3)[nH]2)OC1
IC50 (MAP kinase p38): 50 nM | bioavailability [2]: 50% | ED50 (Mus musculus [3]): < 10 mg/kg

COC(=O)[C@H]1[C@@H](c2ccc(Cl)c(Cl)c2)C[C@@H]2CC[C@H]1O2
IC50 [4]: 3.27 nM | IC50 [5]: 4.67 nM

O=C(NCc1c(F)cc(F)cc1F)c1cn2c(c(O)c1=O)C(=O)N1[C@H]3CC[C@H](C3)O[C@@H]1C2 [BICTEGRAVIR]
Fu [6]: 0.3% | bioavailability [7]: 50% | EC50 [8]: 1.9 nM | Ratio EC50 [9]: 2 | bioavailability [10]: 28% | solubility [11]: 119 µg/mL (≈ 265 µM) | half-life [12]: 1140 min | Emax at 15 µM (PXR (NR1I2)): 18%

C[C@@H]1CC[C@H]2[C@@H](C)C(=O)O[C@@H]3O[C@@]4(C)CC[C@@H]1[C@]32OO4 [ARTEMISININ]
half-life [13]: 1440 min | IC50 (Plasmodium falciparum [14]): 7 nM | IC50 (Plasmodium falciparum [15]): 2.8 nM

COC(=O)N[C@H](C(=O)N1CCC[C@H]1c1nc(-c2ccc3c(c2)O[C@@H](c2ccccc2)n2c-3cc3cc(-c4c[nH]c([C@@H]5CCCN5C(=O)[C@@H](NC(=O)OC)C(C)C)n4)ccc32)c[nH]1)C(C)C [ELBASVIR]
EC50 (Hepatitis C virus): 2.4 nM | bioavailability [16]: 32% | bioavailability [2]: 9% | bioavailability [17]: 35% | bioavailability [18]: 17%

CC[C@@H]1C(=O)N(C(=O)NCc2ccccc2)[C@H]1Oc1ccc(C(=O)O)cc1
half-life [19]: > 4800 min | K [20]: 2 10^3/M/s

CC(C)C1=C[C@H]2OC3(CCC(N[C@H]4CC[C@H](Nc5ccnc6cc(Cl)ccc56)CC4)CC3)OO[C@@]2(C)CC1 (stereo partly drawn)
IC50 (Plasmodium falciparum [14]): 18 nM

C[C@]1(NC(=O)c2ccccc2)CO[C@H](c2nc(-c3ccncc3)c(-c3ccc(F)cc3)[nH]2)OC1
IC50 (MAP kinase p38): 44 nM | bioavailability [2]: 64% | ED50 (Mus musculus [3]): 10 mg/kg

N#Cc1cc(-c2ccoc2)c2ccc(OCc3cccc(C4(O)CC5COC(C4)O5)c3)cc2c1 (stereo not drawn)
IC50 [21]: 3 nM | bioavailability [2]: 10% | Cmax [22]: 2500 nM

N#Cc1cc(-c2ccoc2)c2ccc(OCc3cccc(C4(O)CC5COC(C4)O5)n3)cc2c1 (stereo not drawn)
bioavailability [2]: 26% | Cmax [22]: 5000 nM | bioavailability [17]: 73%

C[S+]([O-])c1ccc(-c2nc(-c3ccncc3)c(-c3ccc(F)cc3)[nH]2)cc1 (stereo not drawn) [SB-203580]
bioavailability [2]: 10% | ED50 (Mus musculus [3]): 10 mg/kg

Fc1ccc([C@@H]2NCCO[C@]23CC[C@@H](c2ccccc2C(F)(F)F)CO3)cc1
Activity (Substance-P receptor): 47%

c1ccc([C@@]23OC[C@@H](CCn4c2nc2ccccc24)O3)cc1
ED50 (Mus musculus [23]): 100 mg/kg

CC(C)(N)CNC(=O)CC1CCC2(CC1)OOC1(O2)C2CC3CC(C2)CC1C3 (stereo not drawn)
bioavailability [2]: 35% | half-life [24]: 60 min

COC(=O)[C@H]1[C@@H](c2ccc(Cl)c(Cl)c2)C[C@@H]2CC[C@H]1N2C
IC50 [4]: 1.1 nM | IC50 [5]: 2 nM

O=c1[nH]nc(CN2CCO[C@H](OCc3cc(C(F)(F)F)cc(C(F)(F)F)c3)[C@@H]2c2ccccc2)[nH]1
ED50 (Cavia porcellus): 0.009 mg/kg | pKa [25]: < 3 | IC50 [26]: 12 µM

N#Cc1cc(-c2ccoc2)c2ccc(OCc3cccc(C4(O)CCOCC4)n3)cc2c1
IC50 [21]: 0.6 nM | bioavailability [2]: 26% | Cmax [22]: 2000 nM

O=c1[nH]cnc2c1ncn2[C@@H]1O[C@H](CO)C[C@@H]1F
half-life [27]: > 1 min

Cc1cc(C)n(CCCC[C@H]2CO[C@@H](c3nc(-c4ccccc4)c(-c4ccccc4)[nH]3)OC2)n1
IC50 [28]: 75 nM

C[C@H]1[C@@H](O)O[C@@H]2O[C@@]3(C)CC[C@H]4[C@H](C)CC[C@@H]1[C@@]24OO3 [ARTENIMOL]
half-life [29]: 23 min | half-life [13]: 1020 min | half-life [30]: 0.708 days | bioavailability [31]: 1.4% | IC50 (Plasmodium falciparum [15]): 0.45 nM | half-life [24]: 30 min

C[C@@H]1CC[C@H]2[C@@H](C)[C@](O)(C(F)(F)F)O[C@@H]3O[C@@]4(C)CC[C@@H]1[C@]32OO4
half-life [29]: 86 min | half-life [30]: 31.7 days | bioavailability [31]: 28% | IC50 (Plasmodium falciparum [15]): 2.6 nM

CCC[C@H](NC(=O)[C@@H]1[C@H]2O[C@H]3CCCOc4cccc(c4)CC(=O)N[C@@H](C4CCCCC4)CN1C[C@@H]2O3)C(=O)C(=O)NCC(=O)N[C@H](C(=O)O)c1ccccc1
Ki [32]: 38 nM

c1ccc(-c2nc(C3OCCCO3)[nH]c2-c2ccccc2)cc1
IC50 [28]: 110 nM

O=c1[nH]nc(CN2CCC[C@H](OCc3cc(C(F)(F)F)cc(C(F)(F)F)c3)[C@@H]2c2ccccc2)[nH]1
ED50 (Cavia porcellus): 0.037 mg/kg | pKa [25]: 5.3 | IC50 [26]: 13 µM

Nc1ncnc2c1ncn2[C@@H]1O[C@H](CO)C[C@H]1F
half-life [27]: > 1 min

CCCCC[C@H](O)/C=C/[C@H]1O[C@@H]2O[C@H]([C@@H]1C/C=C\CCCC(=O)O)C2(F)F
EC50 [33]: 36 nM | half-life [34]: 322 days

Fc1ccc([C@@H]2NCCO[C@@]23CC[C@H](c2ccccc2C(F)(F)F)CO3)cc1
Activity (Substance-P receptor): 44%

Cc1cn([C@H]2C=C[C@@H](CO)O2)c(=O)[nH]c1=O [STAVUDINE]
half-life [35]: 1560 min

O=c1ccn([C@H]2C=C[C@@H](CO)O2)c(=O)[nH]1
half-life [35]: 900 min

CC1(C)COC2(CCC(N[C@H]3CC[C@H](Nc4ccnc5cc(Cl)ccc45)CC3)CC2)OO1 (stereo partly drawn)
IC50 (Plasmodium falciparum [14]): 10 nM

Nc1ncnc2c1ncn2[C@@H]1O[C@H](CO)C[C@@H]1F [LODENOSINE]
half-life [27]: > 1 min

CO[C@@]1(C(F)(F)F)O[C@@H]2O[C@@]3(C)CC[C@H]4[C@H](C)CC[C@@H]([C@H]1C)[C@@]24OO3
half-life [30]: 27.5 days | ED50 [36]: 3.4 µmol/kg

CCCCC[C@H](O)/C=C/[C@H]1O[C@@H]2O[C@@H]([C@H]2F)[C@@H]1C/C=C\CCCC(=O)O
half-life [34]: 20 days

Nc1ccn([C@H]2C=C[C@@H](CO)O2)c(=O)n1
half-life [35]: 12 min

CC[C@@H]1C(=O)N(C(C)=O)[C@H]1Oc1ccc(C(=O)O)cc1
half-life [19]: 516 min | K [20]: 6.7 10^3/M/s

CCC[C@H](NC(=O)[C@@H]1[C@H]2O[C@H]3CCCOc4cccc(c4)CC(=O)N[C@@H](C4CCCCC4)CN1C[C@@H]2O3)C(=O)C(=O)NCC(=O)N[C@H](C(=O)OC(C)(C)C)c1ccccc1
Ki [32]: 38 nM

Cc1cc(C)n(CCC[C@H]2CO[C@@H](c3nc(-c4ccccc4)c(-c4ccccc4)[nH]3)OC2)n1
concentration at 1.5 h [1]: 1300 nM

CC[C@@H]1C(=O)N(C(C)=O)[C@H]1OC(C)=O (racemic)
half-life [19]: 144 min | K [20]: 4 10^3/M/s
